Data on 23 compounds can be found in patent US6673794B2, “Substituted aminomethyl-phenyl-cyclohexane derivatives” (Gruenenthal GmbH, priority 2000, dated 2004).

The first assay deals with Male NMRI mice. Description: phenylquinone-induced writhing test in mice. The format is in vivo. The following applies: Mus musculus, iv, 10 mg/kg i.v., 10 minutes before phenylquinone i.p., writhing counted 5-20 minutes after phenylquinone, read-out: % inhibition of the writhing reactions (10 mg/kg i.v.). The protocol:
The antinociceptive activity of the compounds according to the invention was investigated in mice in the phenylquinone-induced writhing test, modified by I.C. Hendershot, J. Forsaith, J. Pharmacol. Exp. Ther. 125, 237-240 (1959). Male NMRI mice weighing 25-30 g were used. Groups of 10 animals per substance dose received 0.3 ml/mouse of a 0.02% aqueous solution of phenylquinone (phenylbenzoquinone, Sigma, Deisenhofen; preparation of the solution with the addition of 5% ethanol and storage in a water bath at 45° C.) administered intraperitoneally 10 minutes after intravenous administration of a compound according to the invention. The animals were placed individually in observation cages. The number of pain-induced stretching movements (so-called writhing reactions, that is straightening of the body with stretching of the hind extremities) was counted by means of a push-button counter for 5-20 minutes after the administration of phenylquinone. Animals which received physiological saline solution i.v. and phenylquinone […]. were also run as a control.
All substances were tested in the standard dose of 10 mg/kg. The percentage inhibition (% inhibition) of the writhing reactions by a substance was calculated according to the following equation:
% inhibition=100−(WRtreated animals/WRcontrol×100)
Take `COc1cccc(C2=C/C(=C\c3cccc(C(=O)OCC(C)C)c3)CCC2CN(C)C)c1` (centres unmarked) [Compound 39, Z-3-[4-Dimethylaminomethyl-3-(3-methoxy-phenyl)-cyclohex-2-enylidenemethyl]-benzoic acid isobutyl ester]: the inhibition in vivo at 10 mg/kg was found to be 78%.
Same read-out and setting: as for `CN(C)C[C@@H]1CC/C(=C\c2ccccc2)C[C@H]1c1cccc(O)c1` (racemic) [Compound 20, rac-trans-E-3-(5-benzylidene-2-dimethylaminomethyl-cyclohexyl)-phenol], the figure is 84%; as for `CN(C)C[C@@H]1CC/C(=C\c2cccc(CO)c2)C[C@H]1c1cccc(O)c1` (racemic) [Compound 19, rac-trans-E-3-[2-dimethylaminomethyl-5-(3-hydroxymethyl-benzylidene)-cyclohexyl]-phenol], 82%; as for `COc1cccc(C2=C/C(=C/c3cccc(C(=O)OC(C)(C)C)c3)CCC2CN(C)C)c1` (centres unmarked) [Compound 21, E-3-[4-Dimethylaminomethyl-3-(3-methoxy-phenyl)-cyclohex-2-enylidenemethyl]-benzoic acid tert-butyl ester], 79%.
For `CCN(CC)C(=O)c1cccc(/C=C2/CC[C@@H](CN(C)C)[C@H](c3cccc(OC)c3)C2)c1` (racemic) [Compound 36, rac-trans-Z-3-[4-Dimethylaminomethyl-3-(3-methoxy-phenyl)-cyclohexylidenemethyl]-N,N-diethyl-benzamide], the inhibition in vivo at 10 mg/kg is 100%.
On the same count and under the same terms, as for `CCOC(=O)c1cccc(/C=C2/CC[C@H](CN(C)C)[C@H](c3cccc(OC)c3)C2)c1` (racemic) [Compound 30, rac-cis-Z-3-[4-Dimethylaminomethyl-3-(3-methoxy-phenyl)-cyclohexylidenemethyl]-benzoic acid ethyl ester], the figure is 84%; as for `COc1cccc([C@@H]2C/C(=C\c3cccc(C(=O)O)c3)CC[C@H]2CN(C)C)c1` (racemic) [Compound 17, rac-trans-Z-3-[4-Dimethylaminomethyl-3-(3-methoxy-phenyl)-cyclohexylidenemethyl]-benzoic acid], 85%; as for `CCN(CC)C(=O)c1cccc(/C=C2\C=C(c3cccc(OC)c3)C(CN(C)C)CC2)c1` (centres unmarked) [Compound 34, Z-3-[4-Dimethylaminomethyl-3-(3-methoxy-phenyl)-cyclohex-2-enylidenemethyl]-N,N-diethyl-benzamide], 78%.
On the same count and under the same terms, in the case of `CCN(CC)C(=O)c1cccc(/C=C2\CCC(CN(C)C)C(c3cccc(OC)c3)C2)c1` (racemic) [Compound 32] it was 100%; in that of `COc1cccc([C@@H]2C/C(=C/c3cccc(C(=O)O)c3)CC[C@H]2CN(C)C)c1` (racemic) [Compound 18, rac-trans-E-3-[4-Dimethylaminomethyl-3-(3-methoxy-phenyl)-cyclohexylidenemethyl]-benzoic acid], 100%; in that of `COC(=O)c1cccc(C=C2CCC(CN(C)C)C(c3cccc(OC)c3)C2)c1` (racemic) [Compound 8, rac-trans-E-3-[4-dimethylaminomethyl-3-(3-methoxy-phenyl)-cyclohexylidenemethyl]-benzoic acid methyl ester], 98%.
With `COC(=O)c1cccc(/C=C2/C=C(c3cccc(O)c3)C(CN(C)C)CC2)c1` (centres unmarked) [Compound 37, E-3-[4-dimethylaminomethyl-3-(3-hydroxy-phenyl)-cyclohex-2-enylidenemethyl]-benzoic acid methyl ester], the inhibition in vivo at 10 mg/kg worked out at 91%.
Regarding `COc1cccc(C2=C/C(=C/c3cccc(C(=O)O)c3)CCC2CN(C)C)c1` (centres unmarked) [Compound 15, E-3-[4-Dimethylaminomethyl-3-(3-methoxy-phenyl)-cyclohex-2-enylidenemethyl]-benzoic acid], the inhibition in vivo at 10 mg/kg is 100%.
In the case of `CN(C)CC1CC/C(=C\c2cccc(CO)c2)C=C1c1cccc(O)c1` (centres unmarked) [Compound 22, E-3-[6-Dimethylaminomethyl-3-(3-hydroxymethyl-benzylidene)-cyclohex-1-enyl]-phenol], the inhibition in vivo at 10 mg/kg came to 93%.
For `COc1cccc(C2=C/C(=C\c3cccc(C(=O)O)c3)CCC2CN(C)C)c1` (centres unmarked) [Compound 14, Z-3-[4-Dimethylaminomethyl-3-(3-methoxy-phenyl)-cyclohex-2-enylidenemethyl]-benzoic acid], the inhibition in vivo at 10 mg/kg was found to be 94%.
Still for that read-out and setting: as for `CN(C)CC1=C(c2cccc(O)c2)C/C(=C\c2cccc(CO)c2)CC1` [Compound 24, Z-3-[2-dimethylaminomethyl-5-(3-hydroxymethyl-benzylidene)-cyclohex-1-enyl]-phenol], the figure is 100%; as for `COc1cccc(C2=C/C(=C/c3cccc(CO)c3)CCC2CN(C)C)c1` (centres unmarked) [Compound 16, E-{3-[4-dimethylaminomethyl-3-(3-methoxy-phenyl)-cyclohex-2-enylidenemethyl]-phenyl}-methanol], 98%; as for `CCOC(=O)c1cccc(/C=C2/C=C(c3cccc(OC)c3)C(CN(C)C)CC2)c1` (centres unmarked) [Compound 33, E-3-[4-Dimethylaminomethyl-3-(3-methoxy-phenyl)-cyclohex-2-enylidenemethyl]-benzoic acid ethyl ester], 90%.
The same measure, in the same setting: in the case of `COc1cccc(C2=C/C(=C\c3cccc(CO)c3)CCC2CN(C)C)c1` (centres unmarked) [Compound 25, Z-{3-[4-Dimethylaminomethyl-3-(3-methoxy-phenyl)-cyclohex-2-enylidenemethyl]-phenyl}-methanol] it was 100%; in that of `CN(C)CC1CC/C(=C/c2cccc(C(=O)O)c2)C=C1c1cccc(O)c1` (centres unmarked) [Compound 48, Z-3-[4-Dimethylaminomethyl-3-(3-hydroxy-phenyl)-cyclohex-2-enylidenemethyl]-benzoic acid], 98%.
Still for that read-out and setting: in the case of `CN(C)C[C@@H]1CC/C(=C/c2ccccc2)C[C@H]1c1cccc(O)c1` (racemic) [Compound 23, rac-trans-Z-3-(5-Benzylidene-2-dimethylaminomethyl-cyclohexyl)-phenol] it was 88%.

The same assay, now with this note: mouse writhing test, 10 minutes before phenylquinone i.p., writhing counted 5-20 minutes after phenylquinone.
On to `COc1cccc([C@@H]2C/C(=C/c3cccc(C(=O)O)c3)CC[C@@H]2CN(C)C)c1.Cl` (racemic) [Compound 26, rac-cis-E-3-[4-Dimethylaminomethyl-3-(3-methoxy-phenyl)-cyclohexylidenemethyl]-benzoic acid], for which the “% inhibition of the writhing reactions (10 mg/kg i.v.)” value was determined as 87%.
Regarding `CCN(CC)C(=O)c1cccc(/C=C2\CC[C@H](CN(C)C)[C@H](c3cccc(OC)c3)C2)c1.Cl` (racemic) [Compound 35, rac-cis-E-3-[4-Dimethylaminomethyl-3-(3-methoxy-phenyl)-cyclohexylidenemethyl]-N,N-diethyl-benzamide], the “% inhibition of the writhing reactions (10 mg/kg i.v.)” value came out at 100%.
